From BindingDB's records for patent US12187713 (Betta Pharmaceuticals, 2025)

Molecular target: Programmed cell death 1 ligand/protein 1 (Homo sapiens, UniProt Q9NZQ7+Q15116)
Test: PD-1/PD-L1 Binding Assay (Alphascreen)
Experimental: The assays were conducted in a standard black 384-well polystyrene plate with a final volume of 20 μL. Inhibitors were first serially diluted in DMSO and then added to the plate wells before the addition of other reaction components. The final concentration of DMSO in the assay was […]. Add 100 nL/well of compound to the 384 reaction plate (6008280, PerkinElmer) with Echo and centrifuge at 1000 rpm for 1 minute. Add 5 μL/well 4×PD-L1 solutions to the 384 reaction plate, centrifuge at 1000 rpm for 1 minute, and add 5 μL/well 4×PD-1 solutions, centrifuge at 1000 rpm for 1 minute, and incubate at 25° C. for 15 minutes. The concentrations of the compounds were 300, 100, 33.33, 11.11, 3.70, 1.23, 0.41, 0.137, 0.046, 0.015, 0 nM, respectively. Add 10 μL/well 2× Anti-6×His AlphaLISA Acceptor beads and Streptavidin Donor beads solution (PerkinElmer-AL356F) to the above 384 reaction plate, centrifuge at 1000 rpm for 1 minute, and incubate at 25° C. in the dark for 120 minutes. Read the AlphaLISA signal value using the Envision Reader. IC50 determination was performed by fitting the curve of percent control activity versus the log of the inhibitor concentration using the GraphPad Prism 8.0 software.

Programmed cell death 1 ligand/protein 1, sequence (Q9NZQ7 whole entry): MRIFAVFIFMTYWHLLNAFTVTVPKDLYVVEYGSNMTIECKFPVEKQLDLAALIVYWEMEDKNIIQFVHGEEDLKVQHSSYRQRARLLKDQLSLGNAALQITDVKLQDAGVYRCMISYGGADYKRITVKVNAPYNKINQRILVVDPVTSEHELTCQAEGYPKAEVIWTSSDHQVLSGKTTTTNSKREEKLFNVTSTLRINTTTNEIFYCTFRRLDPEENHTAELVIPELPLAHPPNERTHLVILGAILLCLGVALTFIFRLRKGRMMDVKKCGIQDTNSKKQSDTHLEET
Programmed cell death 1 ligand/protein 1, sequence (Q15116 whole entry): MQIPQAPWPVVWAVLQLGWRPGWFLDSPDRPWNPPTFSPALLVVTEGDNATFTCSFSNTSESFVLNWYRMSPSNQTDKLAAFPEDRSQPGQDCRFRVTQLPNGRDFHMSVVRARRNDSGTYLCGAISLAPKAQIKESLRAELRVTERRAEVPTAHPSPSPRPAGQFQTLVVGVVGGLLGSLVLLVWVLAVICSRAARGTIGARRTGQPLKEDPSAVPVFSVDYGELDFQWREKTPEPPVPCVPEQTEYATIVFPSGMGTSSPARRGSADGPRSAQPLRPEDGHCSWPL

| SMILES | IC50 |
| --- | --- |
| Cc1c(C2=NC3C=C(CN4CCC4(C)N)C(OC(F)F)=CC3O2)cccc1-c1cccc(-c2nc3cc(CN4CCC[C@H]4C(=O)O)c(OC(F)F)cc3o2)c1C (some centres not stated) [US12187713, Example 40] | 2.5 nM |
| CCCNCCCN(C)CC1=CC2N=C(c3cccc(-c4cccc(-c5nc6cc(CN7CCC[C@H]7C(=O)O)c(OC(F)F)cc6o5)c4C)c3C)OC2C=C1OC(F)F (some centres not stated) [US12187713, Example 53] | 2.5 nM |
